A word on the pIC50: it is −log10 of the IC50, conventionally taken in molar units.

IC50 data for 22 compounds are collected here from patent publication US20220289753A1, “SHP2 INHIBITORS” (IRBM S.P.A., priority 2019, published 2022).

pIC50: −log10 of the molar value. Like-named read-outs stand apart in the source and are kept apart here.

Assay [1] deals with T1, SHP-2 enzyme (Met1-Leu525) (Homo sapiens, UniProt Q06124).
T1 construct: synthetized by Origene, Met1-Leu525, cat #TP750155; purchased Origene TP750155
T1 sequence (Q06124 1-525): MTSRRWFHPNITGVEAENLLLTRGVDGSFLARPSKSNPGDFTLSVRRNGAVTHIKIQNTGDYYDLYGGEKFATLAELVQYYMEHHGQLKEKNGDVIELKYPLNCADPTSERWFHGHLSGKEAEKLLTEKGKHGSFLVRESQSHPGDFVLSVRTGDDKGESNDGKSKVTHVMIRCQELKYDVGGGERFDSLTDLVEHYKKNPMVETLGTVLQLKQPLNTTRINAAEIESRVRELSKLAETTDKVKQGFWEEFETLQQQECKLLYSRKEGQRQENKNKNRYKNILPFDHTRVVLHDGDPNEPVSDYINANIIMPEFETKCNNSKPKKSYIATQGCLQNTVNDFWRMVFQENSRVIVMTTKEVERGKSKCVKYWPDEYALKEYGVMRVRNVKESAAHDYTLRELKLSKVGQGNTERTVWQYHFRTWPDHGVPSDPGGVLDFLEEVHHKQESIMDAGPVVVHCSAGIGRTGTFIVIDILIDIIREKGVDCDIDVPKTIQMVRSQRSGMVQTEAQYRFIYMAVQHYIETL
Kind of assay: SHP2 inhibition enzymatic assay (DiFMUP substrate, IRS1 peptide activation). The class given is biochemical. To be noted: SHP2 wt; activated by 500 nM IRS1 peptide; 75 μM DiFMUP substrate. A digest of the protocol: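 SHP-2 (Met1-Leu525, 0.5 nM final) preincubated 30 min with compounds and IRS1 activating peptide in HEPES pH 7.2 buffer with NaCl, KCl, EDTA, tween-20, 5 mM DTT. DiFMUP then added for 30 min at room temperature and fluorescence read. IC50 from four-parameter logistic fit of % inhibition.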

Assay [2] concerns ERK phosphorylation in KYSE-520 cells. In words: Phospho-ERK cellular assay (Advanced phospho-ERK1/2 (Thr202/Tyr204) TR-FRET kit). It is filed as cell-based. To be noted: Homo sapiens, KYSE-520, 2 h, read-out: pERK IC50. A digest of the protocol:
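IC50 values are inflection points of four-parameter logistic fits of percent activity against compound dilution. Compound exposure lasted 2 h at 37° C in KYSE-520 cells. Lysates were probed overnight with Eu-cryptate/d2 antibodies to ERK1/2 phosphorylated at Thr202/Tyr204, so reduced TR-FRET indicates SHP2 inhibition.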
For orientation: TR-FRET usually uses a lanthanide donor and a delayed reading to cut background.

[3] abbreviates: KYSE-520 cells, 2 h at 37° C., TR-FRET.

Take `Nc1nccc(Sc2cnc3[nH]c(N4CCC5(CC4)Cc4cc(CO)ccc4[C@H]5N)nc3n2)c1Cl` [Example 252, (S)-(1-amino-1′-(5-((2-amino-3-chloropyridin-4-yl)thio)-1H-imidazo[4,5-b]pyrazin-2-yl)-1,3-dihydrospiro[indene-2,4′-piperidin]-5-yl)methanol]: the figures for the pIC50 in assay [1] and in assay [2] (setting [3]) were more than 6.30 and more than 6.00, respectively.

For `N[C@@H]1c2ccccc2CC12CCN(c1nc3nc(Sc4cc(O)ncc4Cl)cnc3[nH]1)CC2` [Example 241, (S)-4-((2-(1-amino-1,3-dihydrospiro[indene-2,4′-piperidin]-1′-yl)-1H-imidazo[4,5-b]pyrazin-5-yl)thio)-5-chloropyridin-2-ol], the results for the pIC50 in assay [1] and in assay [2] (setting [3]) were 5.52 to 6.30 and 5.30 to 6.00, respectively.

Consider `N[C@@H]1c2ccccc2CC12CCN(c1cc3nc(Sc4cccc(Cl)c4Cl)cnc3[nH]1)CC2` [Example 243, (S)-1′-(2-((2,3-dichlorophenyl)thio)-5H-pyrrolo[2,3-b]pyrazin-6-yl)-1,3-dihydrospiro[indene-2,4′-piperidin]-1-amine], for which the values for the pIC50 in assay [1] and in assay [2] (setting [3]) were more than 6.30 and more than 6.00, respectively.

As to `N[C@@H]1c2cc(F)ccc2CC12CCN(c1nc3ncc(Sc4ccncc4F)nc3[nH]1)CC2` [Example 187, (S)-6-fluoro-1′-(6-((3-fluoropyridin-4-yl)thio)-1H-imidazo[4,5-b]pyrazin-2-yl)-1,3-dihydrospiro[indene-2,4′-piperidin]-1-amine], the negative logarithm of the IC50 (pIC50) in assay [1] is more than 6.30; in assay [2] (setting [3]) it was more than 6.00.

For `N[C@@H]1c2ccccc2CC12CCN(c1nc3nc(Sc4cncnc4C(F)(F)F)cnc3[nH]1)CC2` [Example 156, (S)-1′-(5-((4-(trifluoromethyl)pyrimidin-5-yl)thio)-1H-imidazo[4,5-b]pyrazin-2-yl)-1,3-dihydrospiro[indene-2,4′-piperidin]-1-amine], the pIC50 was more than 6.30 in assay [1] and less than 5.30 in assay [2] (setting [3]).

As for `CC1(N)CCN(c2nc3nc(Sc4ccccc4C(F)(F)F)cnc3[nH]2)CC1` [Example 18, 4-methyl-1-(5-((2-(trifluoromethyl)phenyl)thio)-1H-imidazo[4,5-b]pyrazin-2-yl)piperidin-4-amine], the pIC50 was more than 6.30 in assay [1] and 5.30 to 6.00 in assay [2] (setting [3]).

Consider `N[C@@H]1c2ccccc2CC12CCN(c1nc3nc(Sc4ccncc4Cl)cnc3[nH]1)CC2` [Example 148, (S)-1′-(5-((3-chloropyridin-4-yl)thio)-1H-imidazo[4,5-b]pyrazin-2-yl)-1,3-dihydrospiro[indene-2,4′-piperidin]-1-amine], for which the figures for the pIC50 in assay [1] and in assay [2] were more than 6.30 and more than 6.00, respectively.

Take `N[C@@H]1c2ccccc2CC12CCN(c1nc3ncc(Sc4cccc5[nH]c(=O)oc45)nc3[nH]1)CC2` [Example 178, (S)-7-((2-(1-amino-1,3-dihydrospiro[indene-2,4′-piperidin]-1′-yl)-1H-imidazo[4,5-b]pyrazin-6-yl)thio)benzo[d]oxazol-2(3H)-one]: the pIC50 in assay [1] was more than 6.30; in assay [2] (setting [3]) it was 5.30 to 6.00.

Regarding `N[C@@H]1c2ccccc2CC12CCN(c1nc3nc(Sc4ccnc5[nH]ccc45)cnc3[nH]1)CC2` [Example 232, (S)-1′-(5-((1H-pyrrolo[2,3-b]pyridin-4-yl)thio)-1H-imidazo[4,5-b]pyrazin-2-yl)-1,3-dihydrospiro[indene-2,4′-piperidin]-1-amine], the pIC50 was more than 6.30 in assay [1] and more than 6.00 in assay [2] (setting [3]).

With `Nc1nccc(Sc2cnc3nc(N4CCC5(CC4)Cc4ccc(F)cc4[C@H]5N)[nH]c3n2)c1Cl` [Example 175, (S)-1′-(6-((2-amino-3-chloropyridin-4-yl)thio)-1H-imidazo[4,5-b]pyrazin-2-yl)-6-fluoro-1,3-dihydrospiro[indene-2,4′-piperidin]-1-amine], the pIC50 is more than 6.30 in assay [1] and more than 6.00 in assay [2] (setting [3]).

`CC1(N)CCN(c2nc3ncc(Sc4cccc(Cl)c4Cl)nc3[nH]2)CC1` [Example 22, 1-(5-((2,3-dichlorophenyl)thio)-1H-imidazo[4,5-b]pyrazin-2-yl)-4-methylpiperidin-4-amine]: the figures for the negative logarithm of the IC50 (pIC50) in assay [1] and in assay [2] (setting [3]) were more than 6.30 and 5.30 to 6.00, respectively.

Regarding `Cn1cc2c(Sc3cnc4[nH]c(N5CCC6(CC5)Cc5ccccc5[C@H]6N)nc4n3)ccnc2n1` [Example 255, (S)-1′-(5-((2-methyl-2H-pyrazolo[3,4-b]pyridin-4-yl)thio)-1H-imidazo[4,5-b]pyrazin-2-yl)-1,3-dihydrospiro[indene-2,4′-piperidin]-1-amine], the pIC50 in assay [1] is more than 6.30; in assay [2] (setting [3]), more than 6.00.

As for `N[C@@H]1c2ccccc2CC12CCN(c1nc3nc(Sc4cccnc4C(F)(F)F)cnc3[nH]1)CC2` [Example 107, (S)-1′-(5-((2-(trifluoromethyl)pyridin-3-yl)thio)-1H-imidazo[4,5-b]pyrazin-2-yl)-1,3-dihydrospiro[indene-2,4′-piperidin]-1-amine], the results for the pIC50 in assay [1] and in assay [2] (setting [3]) were more than 6.30 and more than 6.00, respectively.

`CCOc1cnccc1Sc1cnc2[nH]c(N3CCC4(CC3)Cc3ccccc3[C@H]4N)nc2n1` [Example 200, (S)-1′-(5-((3-ethoxypyridin-4-yl)thio)-1H-imidazo[4,5-b]pyrazin-2-yl)-1,3-dihydrospiro[indene-2,4′-piperidin]-1-amine]: the values for the pIC50 in assay [1] and in assay [2] (setting [3]) were more than 6.30 and more than 6.00, respectively.

As to `Nc1nccc(Sc2cnc3[nH]c(N4CCC5(CC4)Cc4ccc(N6CCOCC6)cc4[C@H]5N)nc3n2)c1Cl` [Example 223, (S)-1′-(5-((2-amino-3-chloropyridin-4-yl)thio)-1H-imidazo[4,5-b]pyrazin-2-yl)-6-morpholino-1,3-dihydrospiro[indene-2,4′-piperidin]-1-amine], the results for the pIC50 in assay [1] and in assay [2] (setting [3]) were more than 6.30 and less than 5.30, respectively.

`Nc1nccc(Sc2cnc3[nH]c(N4CCC5(CC4)Cc4ccc(CO)cc4[C@H]5N)nc3n2)c1Cl` [Example 244, (S)-(1-amino-1′-(5-((2-amino-3-chloropyridin-4-yl)thio)-1H-imidazo[4,5-b]pyrazin-2-yl)-1,3-dihydrospiro[indene-2,4′-piperidin]-6-yl)methanol]: the pIC50 is more than 6.30 in assay [1] and more than 6.00 in assay [2] (setting [3]).

With `N[C@@H]1c2ccccc2CC12CCN(c1nc3nc(Sc4cccnc4OCc4ncco4)cnc3[nH]1)CC2` [Example 235, (S)-1′-(5-((2-(oxazol-2-ylmethoxy)pyridin-3-yl)thio)-1H-imidazo[4,5-b]pyrazin-2-yl)-1,3-dihydrospiro[indene-2,4′-piperidin]-1-amine], the values for the pIC50 in assay [1] and in assay [2] (setting [3]) were more than 6.30 and 5.30 to 6.00, respectively.

Consider `Cn1cc2c(n1)CC1(CCN(c3nc4nc(Sc5ccnc(N)c5Cl)cnc4[nH]3)CC1)C2N` (centres unmarked) [Example 233, 1′-(5-((2-amino-3-chloropyridin-4-yl)thio)-1H-imidazo[4,5-b]pyrazin-2-yl)-2-methyl-2,6-dihydro-4H-spiro[cyclopenta[c]pyrazole-5,4′-piperidin]-4-amine], for which the negative logarithm of the IC50 (pIC50) in assay [1] was more than 6.30; in assay [2] (setting [3]), more than 6.00.

On to `N#Cc1c[nH]c2nccc(Sc3cnc4[nH]c(N5CCC6(CC5)Cc5ccccc5[C@H]6N)nc4n3)c12` [Example 240, (S)-4-((2-(1-amino-1,3-dihydrospiro[indene-2,4′-piperidin]-1′-yl)-1H-imidazo[4,5-b]pyrazin-5-yl)thio)-1H-pyrrolo[2,3-b]pyridine-3-carbonitrile], for which the results for the pIC50 in assay [1] and in assay [2] (setting [3]) were more than 6.30 and 5.30 to 6.00, respectively.

Turning to `N[C@@H]1c2cc(F)ccc2CC12CCN(c1nc3nc(Sc4cccn5ccnc45)cnc3[nH]1)CC2` [Example 192, (S)-6-fluoro-1′-(5-(imidazo[1,2-a]pyridin-8-ylthio)-1H-imidazo[4,5-b]pyrazin-2-yl)-1,3-dihydrospiro[indene-2,4′-piperidin]-1-amine], the results for the pIC50 in assay [1] and in assay [2] (setting [3]) were more than 6.30 and 5.30 to 6.00, respectively.

Consider `N[C@@H]1c2ccccc2CC12CCN(c1nc3nc(Sc4ccc5cc[nH]c5c4)cnc3[nH]1)CC2` [Example 193, (S)-1′-(5-((1H-indol-6-yl)thio)-1H-imidazo[4,5-b]pyrazin-2-yl)-1,3-dihydrospiro[indene-2,4′-piperidin]-1-amine], for which the pIC50 in assay [1] is more than 6.30; in assay [2] (setting [3]), 5.30 to 6.00.

Consider `COc1nc(N)ccc1Sc1cnc2[nH]c(N3CCC4(CC3)Cc3ccccc3[C@H]4N)nc2n1` [Example 269, (S)-1′-(5-((6-amino-2-methoxypyridin-3-yl)thio)-1H-imidazo[4,5-b]pyrazin-2-yl)-1,3-dihydrospiro[indene-2,4′-piperidin]-1-amine], for which the pIC50 is more than 6.30 in assay [1] and more than 6.00 in assay [2] (setting [3]).
